# According to US20240166652A1, “MODULATORS OF THE INTEGRATED STRESS PATHWAY” (Calico Life Sciences LLC, priority 2017, published 2024):
# pEC50: −log10 of the molar value.
# Test system: ATF4 luciferase reporter in HEK293T cells
# Assay: ATF4-Luc assay (ATF4 luciferase reporter, tunicamycin-treated HEK293T cells)
# Type: cell-based, human
# Settings: Homo sapiens, HEK-293T; HEK293T cells carrying the ATF4 luciferase reporter, 1 μg/mL tunicamycin, 7 hours
row,SMILES,pEC50
1,"Cc1n[nH]c2cc(OCC(=O)NC34CCC(NC(=O)COc5ccc(Cl)c(F)c5)(CC3)C[C@@H]4O)ccc12 [Compound 749, 2-(4-chloro-3-fluorophenoxy)-N-[(3S)-3-hydroxy-4-{2-[(3-methyl-1H-indazol-6-yl)oxy]acetamido}bicyclo[2.2.2]octan-1-yl]acetamide]",> 8.00
2,"O=C(COc1ccc(Cl)c(F)c1)NC12CCC(NC(=O)COc3ccc(Cl)c(F)c3)(CC1)C(CCO)C2 (centres unmarked) [Compound 643, N,N′-[2-(2-hydroxyethyl)bicyclo[2.2.2]octane-1,4-diyl]bis[2-(4-chloro-3-fluorophenoxy)acetamide]]",> 8.00
3,"Cc1cc(OCC(=O)NC23CCC(NC(=O)COc4ccc(Cl)cc4)(CC2)[C@@H](O)C3)ccc1F [Compound 816, 2-(4-chlorophenoxy)-N-{(2S)-4-[2-(4-fluoro-3-methylphenoxy)acetamido]-2-hydroxybicyclo[2.2.2]octan-1-yl}acetamide]",> 8.00
4,"COC(=O)c1cc(OCC(=O)NC23CCC(NC(=O)COc4ccc(Cl)c(F)c4)(CC2)[C@@H](O)C3)ccc1Cl [Compound 597, methyl 2-chloro-5-[2-({(3S)-4-[2-(4-chloro-3-fluorophenoxy)acetamido]-3-hydroxybicyclo[2.2.2]octan-1-yl}amino)-2-oxoethoxy]benzoate]",7.30 to 8.00
5,"COc1ccc(CNC23CCC(NC(=O)COc4ccc(Cl)c(F)c4)(CC2)C(O)C3)cc1 (centres unmarked) [Compound 314, 2-(4-chloro-3-fluorophenoxy)-N-(2-hydroxy-4-{[(4-methoxyphenyl)methyl]amino}bicyclo[2.2.2]octan-1-yl)acetamide]",< 5.70
6,"O=C(Cc1ccc(Cl)cn1)NC12CCC(NC(=O)COc3ccc(Cl)c(F)c3)(CC1)[C@@H](O)C2 [Compound 606, 2-(4-chloro-3-fluorophenoxy)-N-{(2S)-4-[2-(5-chloropyridin-2-yl)acetamido]-2-hydroxybicyclo[2.2.2]octan-1-yl}acetamide]",6.60 to 7.30
7,"O=C(COc1ccc(Cl)c(F)c1)N[C@]12CC[C@](NC(=O)COc3ccc(Cl)c(F)c3)(C[C@@H]1O)[C@@H](O)C2 (racemic) [Compound 560, rac-N,N′-[(1S,2S,4S,5S)-2,5-dihydroxybicyclo[2.2.2]octane-1,4-diyl]bis[2-(4-chloro-3-fluorophenoxy)acetamide]]",> 8.00
8,"O=C(COc1cccnc1)NC12CC(NC(=O)COc3ccc(Cl)c(Cl)c3)(C1)C2 [Compound 405, 2-(3,4-dichlorophenoxy)-N-(3-{2-[(pyridin-3-yl)oxy]acetamido}bicyclo[1.1.1]pentan-1-yl)acetamide]",6.60 to 7.30
9,"CCOc1ccc(OCC(=O)NC23CCC(NC(=O)COc4ccc(Cl)c(F)c4)(CC2)C[C@@H]3O)cc1 [Compound 508, 2-(4-chloro-3-fluorophenoxy)-N-{(3S)-4-[2-(4-ethoxyphenoxy)acetamido]-3-hydroxybicyclo[2.2.2]octan-1-yl}acetamide]",7.30 to 8.00
10,"O=C(COc1ccc(OC(F)(F)F)cc1)NC12CC(NC(=O)COc3ccc(Cl)c(F)c3)(C1)C2 [Compound 393, 2-(4-chloro-3-fluorophenoxy)-N-(3-{2-[4-(trifluoromethoxy)phenoxy]acetamido}bicyclo[1.1.1]pentan-1-yl)acetamide]",> 8.00
11,"Cc1ccc(OCC(=O)NC23CCC(NC(=O)COc4ccc5c(C)n[nH]c5c4)(CC2)[C@@H](O)C3)cc1 [Compound 746, N-{(2S)-2-hydroxy-4-[2-(4-methylphenoxy)acetamido]bicyclo[2.2.2]octan-1-yl}-2-[(3-methyl-1H-indazol-6-yl)oxy]acetamide]",7.30 to 8.00
12,"N#Cc1cc(OCC(=O)NC23CC(NC(=O)COc4ccc5c(c4)OC(F)(F)O5)(C2)C3)ccn1 [Compound 270, 2-[(2-cyanopyridin-4-yl)oxy]-N-(3-{2-[(2,2-difluoro-2H-1,3-benzodioxol-5-yl)oxy]acetamido}bicyclo[1.1.1]pentan-1-yl)acetamide]",6.30 to 6.60
13,"CS(=O)(=O)c1ccc(OCC(=O)NC23CC(NC(=O)COc4ccc(Cl)c(F)c4)(C2)C3)cc1 [Compound 127, 2-(4-chloro-3-fluorophenoxy)-N-(3-{2-[4-(methanesulfonyl)-phenoxy]acetamido}-bicyclo[1.1.1]pentan-1-yl)acetamide]",5.70 to 6.30
14,"CN(CC(=O)NC12CC(NC(=O)COc3ccc(Cl)c(F)c3)(C1)C2)C(=O)c1ccc(Cl)cc1 [Compound 204, 4-chloro-N-[2-({3-[2-(4-chloro-3-fluorophenoxy)acetamido]-bicyclo[1.1.1]pentan-1-yl}amino)-2-oxoethyl]-N-methylbenzamide]",5.70 to 6.30
15,"COc1ccc(OCC(=O)NC23CC(NC(=O)COc4ccc5c(c4)OC(F)(F)O5)(C2)C3)cn1 [Compound 271, 2-[(2,2-difluoro-2H-1,3-benzodioxol-5-yl)oxy]-N-(3-{2-[(6-methoxypyridin-3-yl)oxy]acetamido}bicyclo[1.1.1]pentan-1-yl)acetamide]",7.30 to 8.00
16,"Nc1nc(Cl)ccc1OCC(=O)NC12CC(NC(=O)COc3ccc(Cl)c(F)c3)(C1)C2 [Compound 236, 2-[(2-amino-6-chloropyridin-3-yl)oxy]-N-{3-[2-(4-chloro-3-fluorophenoxy)acetamido]bicyclo[1.1.1]pentan-1-yl}acetamide]",7.30 to 8.00
17,"N#Cc1ccc(CNC23CCC(NC(=O)COc4ccc(Cl)c(F)c4)(CC2)CC3O)cc1 (centres unmarked) [Compound 343, 2-(4-chloro-3-fluorophenoxy)-N-(4-{[(4-cyanophenyl)methyl]amino}-3-hydroxybicyclo[2.2.2]octan-1-yl)acetamide]",6.60 to 7.30
18,"O=C(COc1ccnc(C(F)(F)F)c1)NC12CC(NC(=O)COc3ccc(Cl)c(F)c3)(C1)C2 [Compound 233, 2-(4-chloro-3-fluorophenoxy)-N-[3-(2-{[2-(trifluoromethyl)pyridin-4-yl]oxy}acetamido)bicyclo[1.1.1]pentan-1-yl]acetamide]",7.30 to 8.00
19,"CC(=O)c1ccc(OCC(=O)NC23CC(NC(=O)COc4ccc(Cl)c(F)c4)(C2)C3)cn1 [Compound 235, 2-[(6-acetylpyridin-3-yl)oxy]-N-{3-[2-(4-chloro-3-fluorophenoxy)acetamido]0-bicyclo[1.1.1]pentan-1-yl}acetamide]",6.60 to 7.30
20,"O=C(COc1ccc(Cl)c(F)c1)NC12CC(NCC(=O)c3ccc(Cl)c(Cl)c3)(C1)C2 [Compound 286, 2-(4-chloro-3-fluorophenoxy)-N-(3-{[2-(3,4-dichlorophenyl)-2-oxoethyl]amino}bicyclo[1.1.1]pentan-1-yl)acetamide]",6.60 to 7.30
21,"O=C(COc1ccc(Cl)cc1)NC12CC(NC(=O)COc3ccc(Cl)c(F)c3)(C1)C2 [Compound 368, 2-(4-chloro-3-fluorophenoxy)-N-{3-[2-(4-chlorophenoxy)acetamido]bicyclo[1.1.1]pentan-1-yl}acetamide]",> 8.00
22,"O=C(COc1ccc(Cl)c(F)c1)NC12CC(NC(=O)OCCc3cccc(Cl)c3)(C1)C2 [Compound 165, 2-(3-chlorophenyl)ethyl {3-[2-(4-chloro-3-fluorophenoxy)-acetamido]bicyclo[1.1.1]pentan-1-yl}carbamate]",6.60 to 7.30
23,"Cc1cccc(COCC(=O)NC23CC(NC(=O)COc4ccc(Cl)c(Cl)c4)(C2)C3)c1 [Compound 162, 2-(3,4-dichlorophenoxy)-N-(3-{2-[(3-methylphenyl)methoxy]-acetamido}bicyclo[1.1.1]pentan-1-yl)acetamide]",7.30 to 8.00
